From article PMC12583827, “Harnessing microbial-derived metabolites in the urinary tract to prevent infection induced catheter encrustation” (Nature Communications, 2025)
Where a name gives a salt, the structure may show the parent alone. Read-outs that look alike come from different tables or passages of the source. Where a SMILES comes first, the peptide text is derived from it.

Experiments:
[1] = target: T1, P. mirabilis urease (Proteus mirabilis, UniProt P17086); type: cell-based; details: for effect on P. mirabilis urease activity (whole cell): potassium phosphate buffer, dose response; for Dampens urease activity: biosynthetic pathway/functional group screen
T1 construct: it utilizes whole bacterial cells, rather than isolated enzyme preparations; endogenous in cells; host or cells: Proteus mirabilis HI4320, live whole cells
T1 sequence (P17086 whole entry): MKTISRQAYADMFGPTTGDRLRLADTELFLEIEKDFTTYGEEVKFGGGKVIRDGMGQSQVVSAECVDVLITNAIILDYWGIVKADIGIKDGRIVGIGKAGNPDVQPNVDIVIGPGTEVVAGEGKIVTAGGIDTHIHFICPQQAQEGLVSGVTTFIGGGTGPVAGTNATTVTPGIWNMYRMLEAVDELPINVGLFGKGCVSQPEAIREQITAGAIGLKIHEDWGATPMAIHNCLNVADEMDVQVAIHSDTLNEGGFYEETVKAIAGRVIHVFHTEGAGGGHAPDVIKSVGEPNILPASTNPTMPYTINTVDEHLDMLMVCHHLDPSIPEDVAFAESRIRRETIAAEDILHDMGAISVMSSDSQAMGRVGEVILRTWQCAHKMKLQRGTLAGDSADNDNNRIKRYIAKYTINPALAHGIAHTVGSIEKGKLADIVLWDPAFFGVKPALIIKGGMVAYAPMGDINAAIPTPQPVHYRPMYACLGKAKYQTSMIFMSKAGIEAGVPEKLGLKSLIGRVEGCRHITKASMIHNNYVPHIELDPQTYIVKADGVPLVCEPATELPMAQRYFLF
T1 sequence (P17088 whole entry, further chain): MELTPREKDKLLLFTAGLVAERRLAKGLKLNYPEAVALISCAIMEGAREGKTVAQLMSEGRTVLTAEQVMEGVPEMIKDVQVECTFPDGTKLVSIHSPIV
T1 sequence (P17087 whole entry, further chain): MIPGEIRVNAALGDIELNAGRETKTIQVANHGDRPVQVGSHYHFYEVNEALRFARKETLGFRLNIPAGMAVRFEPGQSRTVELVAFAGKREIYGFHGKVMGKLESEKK

[2] = target: T2, urease of P. mirabilis cell free extracts (Proteus mirabilis, UniProt P17086); type: biochemical; details: for type of urease inhibition: Michaelis-Menten parameters, Lineweaver-Burke plot
T2 construct: 20ul of cell-free extract were distributed into a 96-well plate in place of the whole cell bacterial suspensions; endogenous in cells; host or cells: Proteus mirabilis HI4320, urea-induced; freeze-thaw and sonication lysate, clarified supernatant
T2 sequence (P17086 whole entry): as the sequence (P17086 whole entry) above
T2 sequence (P17088 whole entry, further chain): as the sequence (P17088 whole entry, further chain) above
T2 sequence (P17087 whole entry, further chain): as the sequence (P17087 whole entry, further chain) above
Description: For the kinetic analysis of the urease reaction in the presence of urease dampening metabolites, urease activity assays were repeated with the P. mirabilis cell free extracts. Six different inhibitor concentrations that gave linear rates of reaction over a period of 120 min were tested for their effects on urease activity in the presence of urea concentrations ranging from 0 to 500 mM. Simple linear regression was performed on the absorbance (OD562) over 120 minutes for each condition and plotted as Initial velocity (slope) vs urea concentration. These initial hyperbolic plots were converted to double-reciprocal Lineweaver-Burke plots, and the pattern of inhibition inferred from the point of intersection of the lines. Finally, the Ki for a particular compound was determined by plotting the Km/Vmax ratio (the slope of the Lineweaver-Burke plots) of each line as a function of the inhibitor concentration as described by ref. [49]. The X-intercept corresponded to –Ki.

[3] = target: T3, Jack Bean Urease (JBU) (Canavalia ensiformis, UniProt P07374); type: biochemical; details: 0.1 U JBU, 500 mM urea
T3 construct: purchased Sigma-Aldrich
T3 sequence (P07374 whole entry, looked up): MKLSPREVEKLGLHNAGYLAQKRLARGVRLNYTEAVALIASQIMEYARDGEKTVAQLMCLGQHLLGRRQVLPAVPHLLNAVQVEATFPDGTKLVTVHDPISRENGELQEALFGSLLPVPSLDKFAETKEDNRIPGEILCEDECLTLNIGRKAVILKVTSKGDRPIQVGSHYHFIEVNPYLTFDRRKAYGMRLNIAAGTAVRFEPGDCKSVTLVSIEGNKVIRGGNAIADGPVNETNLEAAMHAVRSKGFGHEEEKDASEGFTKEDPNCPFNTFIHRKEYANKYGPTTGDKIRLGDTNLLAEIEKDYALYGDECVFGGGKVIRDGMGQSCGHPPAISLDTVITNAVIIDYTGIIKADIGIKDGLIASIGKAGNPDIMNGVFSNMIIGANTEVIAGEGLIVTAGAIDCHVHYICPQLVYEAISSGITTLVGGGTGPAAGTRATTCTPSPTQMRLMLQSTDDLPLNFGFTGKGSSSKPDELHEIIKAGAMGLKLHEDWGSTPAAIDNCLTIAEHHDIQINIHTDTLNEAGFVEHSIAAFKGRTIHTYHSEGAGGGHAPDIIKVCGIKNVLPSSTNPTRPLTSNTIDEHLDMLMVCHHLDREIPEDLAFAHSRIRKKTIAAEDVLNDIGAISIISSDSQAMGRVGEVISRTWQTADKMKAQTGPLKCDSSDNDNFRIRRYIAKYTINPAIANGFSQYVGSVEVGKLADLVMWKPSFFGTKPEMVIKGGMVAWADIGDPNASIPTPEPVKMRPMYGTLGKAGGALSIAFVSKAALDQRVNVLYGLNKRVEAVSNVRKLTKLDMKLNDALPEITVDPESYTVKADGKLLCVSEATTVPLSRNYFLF
Description: To measure Jack Bean urease activity, the previously described assay was modified such that 0.1 U (1U liberates 1 µmol of ammonia from urea per minute) of JBU (Sigma-Aldrich urease from Canavalia ensiformis) were distributed into a 96-well plate in place of the bacterial suspensions. Acetohydroxamic acid (AHA), was used as a positive control and a vehicle control was used as a negative control. Percent of maximum urease activity was calculated using Area Under the Curve (AUC) relative to untreated bacteria of interest or untreated JBU. Urease activity measurement in MRSA was adapted from a recently published semi quantitative assay (See Supplementary materials for details)[48].
414 Supplementary Figure 13. Microbial metabolites dampen activity of purified Jack Bean
415 Urease (JBU). 0.1 U of JBU (1U liberates 1 µmol of ammonia from urea per minute) was
416 incubated at 37 °C with shaking in urease-dampening metabolites, 500mM urea, and phenol red.
417 A urea analogue, AHA, served as the positive control for inhibition of JBU. Absorbance
418 (OD562) was measured every 60 seconds for 90 minutes, and activity is expressed as percent of
419 maximum activity (% Max Activity) relative to untreated JBU. Graphs show mean±SD for 3
420 independent experiments with 3 technical replicates each. Data were analyzed by two tailed one
421 sample t-test to a hypothetical value of 100% activity. ***P<0.001, **P<0.002, *P<0.033.
(1 picture or pasted object on this page, not shown here)

[4] = target: T1, P. mirabilis urease; type: cell-based
Description: To assess the synergistic effects of dampening metabolites when used in combination with each other, P. mirabilis urease activity was measured as described above. Between 4-6 different concentrations for each dampening metabolite were tested both alone and in combination (See Fig. 6a for example). […] To account for variability between experiments, all conditions tested were performed on a single 96-well plate with three technical replicates for each condition. To compare between biologic replicates, percent inhibition relative to untreated P. mirabilis was calculated for each condition using the average area under the curve over 120-180 minutes (so that the positive control activity curve saturated without any increase in the negative control curve).
Statistical analysis was conducted using a one sample T test of the combination index compared to a hypothetical value of 1 (additive effect). […] Therefore, combination indexes were calculated using a desired effect size less than 40% were indicated with an * in Fig. 6b and in Supplementary Data 5.

[5] = target: T4, urease of P. mirabilis HI4320 cell free extracts (Proteus mirabilis, UniProt P17086); type: biochemical
T4 construct: 20ul of cell-free extract were distributed into a 96-well plate in place of the whole cell bacterial suspensions; endogenous in cells; host or cells: Proteus mirabilis HI4320, urea-induced; freeze-thaw and sonication lysate, clarified supernatant
T4 sequence (P17088 whole entry): as the sequence (P17088 whole entry, further chain) above
T4 sequence (P17086 whole entry): as the sequence (P17086 whole entry) above
T4 sequence (P17087 whole entry, further chain): as the sequence (P17087 whole entry, further chain) above
Description: To measure urease activity of the cell free extracts of P. mirabilis, P. mirabilis was cultured for ~18 h in LB broth and then sub cultured until it reached mid-log growth phase (OD600 0.2-0.5). Cultures were spun down to pellet at 10,000 rcf for 10 minutes and resuspended in saline to a final OD600 of 1.0. Cultures were then diluted 1:10 in potassium phosphate buffer pH7 supplemented with 500 mM urea and incubated at 37 °C with shaking for 1 h to induce its urease enzyme production. The isogenic urease mutant Pm ureF::kan (Supplementary Data 1) served as negative control. Cultures then were spun down to pellet at 10,000 rcf for 10 minutes and resuspended in 2 mL saline. Cultures were subjected to four cycles of freezing in liquid nitrogen and thawing in a 37 °C water bath. Cultures were then probe sonicated (on ice) at 25% amplitude for 10 sec. Sonicated cultures were centrifuged at 18,900 Xg for 5 min and supernatants were transferred to a clean tube and stored on ice. To measure urease activity of cell free extracts, the previously described assay was modified such that 20ul of cell-free extract were distributed into a 96-well plate in place of the whole cell bacterial suspensions. Acetohydroxamic acid (AHA), was used as a positive control. Percent of maximum urease activity was calculated using Area Under the Curve (AUC) relative to untreated cell free extracts of P. mirabilis.

[6] = Buffering capacity assay (NaOH titration, phenol red); type: physicochemical; details: high concentrations of metabolite in potassium phosphate buffer with phenol red
Description: Known concentrations of sodium hydroxide were added to each well of a 96 well plate in combination with candidate dampening metabolite of interest buffered 1:10 in potassium phosphate buffer pH7. 0.01% phenol red was added to each well, and absorbance (OD562) was measured in a Synergy H1 plate reader (BioTek).

[7] = screen of candidate metabolites, highest concentration tested 20mM, * Trending but not statistically significant
[8] = highest concentration tested 10mM in 20%DMSO
[9] = highest concentration tested 20mM

## CC[C@H](C)[C@H](NC(C)=O)C(=O)O [N-acetylisoleucine, N-acetyl-L-isoleucine]
[1]; [7]
  Urease dampening activity: No

## N=C(N)NCCC[C@H](N)C(=O)O [L-Arginine]
[1]; [7]
  Urease dampening activity: No

## O=Cc1c[nH]c2ccccc12 [3-formylindole, Indole-3-carboxyaldehyde]
[1]; [8]
  Urease dampening activity: No

## O=c1[nH]c(=O)c2nc[nH]c2[nH]1 [xanthine, Xanthine]
[1]; highest concentration tested 400uM
  Urease dampening activity: No

## O=C(O)[C@@H](O)Cc1cnc[nH]1 [imidazole lactate]
[1]
  effect on P. mirabilis urease activity (whole cell): reproducibly decreased

## CC(C)CC(=O)C(=O)O [4-methyl-2-oxopentanoate, 4-Methyl-2-oxovaleric acid]
[1]; [7]
  Urease dampening activity: No

## O=C(O)C(=O)Cc1ccc(O)cc1 [4-hydroxyphenylpyruvate, 4-Hydroxyphenylpyruvic acid]
[1]; highest concentration tested 15mM in 10% ethanol
  Urease dampening activity: No

## NCCCCCN [cadaverine, Cadaverine]
[1]; [7]
  Urease dampening activity: No

## O=C(O)C(=O)Cc1cnc[nH]1 [Imidazole pyruvate, Imidazole pyruvic acid hydrobromide hydrate]
[1]; highest concentration tested 5mM
  Dampens urease activity: No

## Nc1ncnc2c1ncn2C1OC(COP(=O)(O)O)C(O)C1O (stereo not shown) [adenosine 5'-monophosphate (AMP), AMP sodium salt hydrate]
[1]; [7]
  Urease dampening activity: No

## NC(COP(=O)(O)O)C(=O)O (racemic) [Ophospho-D,L-serine]
[1]; [7]
  Urease dampening activity: No

## CCC(C)C(=O)C(=O)[O-].[Na+] (racemic) [3-methyl-2-oxovalerate, (±)-3-Methyl-2-oxovaleric acid sodium salt]
[1]; [7]
  Urease dampening activity: No

## N[C@@H](Cc1ccccc1)C(=O)O [phenylalanine, L-phenylalanine]
[1]; [7]
  Urease dampening activity: No

## N[C@@H](Cc1ccc(O)cc1)C(=O)O [tyrosine, L-Tyrosine disodium salt dihydrate]
[1]; highest concentration tested 2.5mM
  Urease dampening activity: No

## O=C(O)C(=O)c1c[nH]c2ccccc12 [3-indoleglyoxylic acid]
[1]; [8]
  Urease dampening activity: No

## O=C1N[C@@H](Cc2ccc(O)cc2)C(=O)N2CCC[C@@H]12 [cyclo(pro-tyr), Cyclo(-Pro-Tyr)]
[1]; [7]
  Urease dampening activity: No

## NCC(=O)O [Glycine]
[1]; [9]
  Dampens urease activity: No

## NC(N)=NCCC[C@@H](N)C(=O)O [D-Arginine]
[1]; [7]
  Urease dampening activity: No

## NCCc1ccccc1 [phenethylamine, 2-Phenylethylamine]
[1]; [7]
  Urease dampening activity: No

## C[C@H](O)C(=O)O [L-Lactic acid, L-(+)-Lactic acid]
[1]; [9]
  Dampens urease activity: No

## Nc1ccn([C@@H]2O[C@H](CO)[C@@H](O)[C@H]2O)c(=O)n1 [cytidine, Cytidine]
[1]; [7]
  Urease dampening activity: No

## O=C1NC(Cc2ccccc2)C(=O)N2CCCC12 (stereo not shown) [cyclo(phe-pro), Cyclo(Phe-Pro)]
[1]; [7]
  Urease dampening activity: No

## CC(C)C[C@H](N)C(=O)NCC(=O)O [leucylglycine, L-Leucylglycine hydrate] (H-Leu-Gly-OH)
[2]
  change of estimated Km on addition of metabolite: increase
  change of estimated Vmax on addition of metabolite: decrease
  type of urease inhibition: mixed inhibitors
[3]
  JBU activity: inhibited
[4]
  concentrations required to achieve a significant combination index: > 50 mM
[5]
  urease activity of cell free P. mirabilis extracts: at least partially inhibiting
[1]
  effect on P. mirabilis urease activity (whole cell): reproducibly decreased
[1]; [7]
  Urease dampening activity: Yes

## N[C@@H](COP(=O)(O)O)C(=O)O [Ophospho-L-serine]
[1]; [7]
  Urease dampening activity: No

## O=C([O-])CCC(O)C(=O)[O-].[Na+].[Na+] (racemic) [2-hydroxyglutarate, DL-α-Hydroxyglutaric acid disodium salt]
[1]; [7]
  Urease dampening activity: No

## CC(=O)O [Acetic acid, Acetic Acid, Glacial]
[1]; [9]
  Dampens urease activity: No

## NC(N)=NCCCC[C@H](N)C(=O)O [homoarginine, H-HoArg-OH]
[1]; [7]
  Urease dampening activity: No

## CC(=O)NCCCCN.Cl [N-acetylputrescine, N-Acetylputrescine Hydrochloride]
[1]; [7]
  Urease dampening activity: No

## O=C([O-])[C@H](O)[C@@H](O)[C@H](O)[C@H](O)CO.[Na+] [gluconate, Gluconic acid Sodium Salt]
[1]; [7]
  Urease dampening activity: No

## NCCc1c[nH]cn1 [Histamine free base]
[1]; [7]
  Urease dampening activity: Yes*

## N[C@@H](Cc1c[nH]cn1)C(=O)O [L-Histidine]
[1]; [9]
  Dampens urease activity: No

## Nc1ncnc2c1ncn2[C@@H]1O[C@@H]2COP(=O)(O)O[C@H]2[C@H]1O [adenosine 3',5'-cyclic monophosphate (cAMP)]
[1]; [7]
  Urease dampening activity: No

## CC(=O)NCCCCCN [N-(5-Aminopentyl)acetamide]
[1]; [7]
  Urease dampening activity: No

## c1c[nH]cn1 [imidazole, Imidazole]
[6]
  buffering capacity: absorbance (OD562) across NaOH concentrations: consistent reduction in absorbance compared to the control
[2]
  change of estimated Km on addition of metabolite: increase
  change of estimated Vmax on addition of metabolite: decrease
  type of urease inhibition: mixed inhibitors
[3]
  JBU activity: inhibited
[5]
  urease activity of cell free P. mirabilis extracts: at least partially inhibiting
[1]; [9]
  Dampens urease activity: Yes
[1]
  effect on P. mirabilis urease activity (whole cell): additional hits

## Cl.Cl.NCCCCCN [Cadaverine dihydrochloride]
[1]; [7]
  Urease dampening activity: No

## O=C(O)C(O)Cc1ccccc1 (racemic) [Phenyllactate, (+/-)-3-Phenyllactic acid]
[1]; [9]
  Dampens urease activity: No

## OC[C@H]1O[C@@](CO)(O[C@H]2O[C@H](CO)[C@@H](O)[C@H](O)[C@H]2O)[C@@H](O)[C@@H]1O [sucrose, Sucrose]
[1]; [7]
  Urease dampening activity: No

## NCCCCN [putrescine, Putrescine Dihydrochloride]
[1]; [7]
  Urease dampening activity: No
